{"source": "paper PMC7689791", "about": "(Journal of Clinical Pharmacology, 2020)", "assay": "Observed incidence of treatment-emergent adverse events in clinical studies", "conditions": "studies 202, 303, 304; 5 to 15 mg"}
{"smiles": "Cc1ncc(OC[C@@]2(c3cccc(F)c3)C[C@H]2C(=O)Nc2ccc(F)cn2)c(C)n1", "note": "[Lemborexant]", "values": [{"measurement": "Flu/influenza frequency, active treatment", "value": 4.0, "unit": "%"}]}
